Experimental data reported in US4946858A, “Novel spirosuccinimides as aldose reductase inhibitors and antihyperglycemic agents” (American Home Products Corporation, priority 1989, dated 1990).
Where two headings read alike, the source gives them in different places.

How the values were obtained:
diabetic (db/db) mice = assay: Blood glucose lowering activity in diabetic (db/db) mice; format: in vivo, mouse (db/db, C57BL/KsJ); details: for change in vivo at 100 mg/kg: Mus musculus, po, 96 h, 100 mg/kg/day p.o. (gavage), read-out: % Change from vehicle (plasma glucose)
Excerpt: The blood glucose lowering activity of the compounds of this invention were demonstrable in experiments using diabetic (db/db) mice. […] The animals are obese, glucose intolerant and have fasting hyperglycemia which is sometimes accompanied by a paradoxical hyperinsulinemia. Furthermore, the db/db mouse will eventually develop some of the long-term complications that have been associated with diabetes mellitus. [See Coleman Diabetes, 31 (Suppl. 1), 1 (1982)]. In spite of these commonalities, the acute administration of sulfonylureas (even at extremely high dosages) will not reduce the hyperglycemia of the db/db mouse. [See Tutwiler et al, Diabetes 27, 856 (1978)]. […] On the morning of Day 1, 35 mice [male db/db (C57BL/KsJ), Jackson Laboratories, 2 to 7 months of age and body weight 35 to 60 g] were fasted for 4 hours, weighted and a baseline blood sample was collected from the tail-tip of each mouse without anesthesia, placed directly into a fluoride-containing tube, mixed and maintained on ice. Food was then returned to the mice. The plasma was separated and levels of glucose in plasma determined by the Abbott VP Analyzer. Because of the variable plasma glucose levels of the db/db mice, 5 mice having the most extreme (i.e., highest or lowest) plasma glucose levels were excluded and the remaining 30 mice were randomly assigned into […] of equivalent means plasma glucose levels: On the afternoon of Days 1, 2 and 3 the vehicle, control or test drugs were administered (p.o.) to the ad libitum fed mice. […] The test compounds were given by gavage at a dose of 100 mg/kg/day unless otherwise noted in Table 3. On the morning of Day 4, the mice were weighted and fasted, but water was available ad libitum. Three hours later, a blood sample was collected and then the mice were given the fourth administration of drug or vehicle. Blood samples were collected again from the unanesthetized mice at 2 and 4 hours after drug administration. The plasma was separated and levels of glucose in plasma determined by the Abbott VP Analyzer. For each mouse, the percent change of it's plasma glucose level on Day 4 (mean of the 2 and 4 hour samples) from it's respective level before drug administration (Day 1 baseline sample) was determined as follows: [formula] Analysis of variance followed by Dunnett's multiple comparison (one-sided) was used to estimate the degree of statistical significance of the difference between the vehicle group and the individual drug-treated groups. A drug was considered active, at the specific dosage administered,if the difference of the plasma glucose level has a p<0.05.

[1] = tested on: hyperglycemia and hyperinsulinemia; details: Fujita et al, Diabetes, 32, 804 (1983); cited from earlier work
aldose reductase = target: T1, aldose reductase (Bos taurus, UniProt P16116); assay: In vitro inhibition of aldose reductase (modified Hayman and Kinoshita procedure, enzyme from bovine lens); format: biochemical; details: read-out: % Inhibition in Vitro; for inhibition at 1 µM: 10^-6 M
T1 construct: preparation of the enzyme from bovine lens; from tissue; host or cells: bovine lens
Excerpt: In the present case the procedure of Hayman and Kinoshita was modified in that the final chromatography step was omitted in the preparation of the enzyme from bovine lens.

galactosemic rats = assay: Lowering of galactitol (dulcitol) accumulation in tissues of galactosemic rats; format: in vivo, rat (Sprague-Dawley); details: 4 days, vs untreated galactosemic rats
Excerpt: The aldose reductase inhibiting property of the compounds of this invention and the utilization of the compounds in preventing, diminishing and alleviating diabetic complications by lowering polyol accumulation were also demonstrable in experiments using galactosemic rats, see Dvornik et al, Science, 182, 1146 (1973). Such experiments are exemplified hereinbelow after the listing of the following general comments pertaining to these experiments:
(a) Four or more groups of six male rats, 50-70 g, Sprague-Dawley strain, were used. The first group, the control group, was fed a mixture of laboratory chow (rodent Laboratory Chow, Purina) and glucose at 20% (w/w %) concentration. The untreated galactosemic group and the drug-treated groups were fed a similar diet in which galactose is substituted for glucose. The test compound was either admixed to the diet or administered by gavage. In experiments involving compound administration in the diet, the average dose administered was calculated from the actual food intake of the animals in each group. The concentration of galactose in the diet of the treated groups was the same as that for the untreated galactosemic groups.
(b) After four days, the amimals were killed by decapitation. The eyeballs were removed and punctured with a razor blade; the freed lenses were rolled gently on filter paper and weighed. The sciatic nerves were dissected as completely as possible and weighed. Both tissues when frozen can be kept up to two weeks before being analyzed for galactitol.
(c) The polyol determination was performed by a modification of the procedure of M. Kraml and L. Cosyns, Clin. Biochem., 2, 373 (1969). Only two minor reagent changes were made: (a) the rinsing mixture was an aqueous 5% (w/v) trichloroacetic acid solution and (b) the stock solution was prepared by dissolving 25 mg of dulcitol in 100 mL of an aqueous trichloroacetic acid solution. [N.B.: For each experiment the average value found in the tissue from rats fed the glucose diet was subtracted from the individual values found in the corresponding tissue in galactose-fed rats to obtain the amount of polyol accumulated.]
The figures under L, N, and D represent the percentage decrease of galactitol accumulation in the tissues of the lens, sciatic nerve, and diaphragm, respectively, for treated rats as compared to untreated rats.

[2] = Day 4 mean of 2 and 4 hour samples vs Day 1 baseline, difference from vehicle

Row | Structure (SMILES) | change in vivo at 100 mg/kg (diabetic (db/db) mice; [2]) [%] | inhibition at 10 µM (aldose reductase; 10^-5 M) [%] | inhibition at 1 µM (aldose reductase) [%] | other results
1 | O=C1CC2(C(=O)N1)c1ccccc1S(=O)(=O)N2Cc1ccc(Br)cc1 (centres unmarked) [Example 106, 2-[(4-bromophenyl)methyl]-2,3-dihydrospiro[1,2-benzisothiazole-3,3'-pyrrol-idine]-2',5'-dione 1,1-dioxide] | -37 |  |  | 
2 | CC1(COc2ccc(CC3SC(=O)NC3=O)cc2)CCCCC1 (racemic) [Ciglitazone, (±)-5-[4-[(1-methylcyclohexyl)methoxy]benzyl]-thiazolidine-2,4-dione, reference compound] | -33 |  |  | effect on hyperglycemia and hyperinsulinemia [1]: normalizes these parameters
3 | O=C1CC2(C(=O)N1)c1ccccc1C(=O)N2Cc1ccc(Cl)c(Cl)c1 (centres unmarked) [Example 115] | -21 | 82 | 45 | 
4 | O=C1CC2(C(=O)N1)c1ccccc1C(=O)N2Cc1ccccc1 (centres unmarked) [Example 114] | -22 |  |  | 
5 | O=C1CC2(C(=O)N1)c1ccccc1S(=O)(=O)N2Cc1ccc(Br)cc1F (centres unmarked) [Example 104, 2-[(4-bromo-2-fluorophenyl)methyl]-2,3-dihydrospiro[1,2-benzisothiazole-3,3'-pyrrolidine]-2',5'-dione 1,1-dioxide] | -48 | 52 | 3 | % Lowering of dulcitol accumulation In Vivo, % L (lens) (galactosemic rats; 104 mg/kg): 13%; comparison with ciglitazone, blood glucose lowering (diabetic (db/db) mice; 100 mg/kg, db/db mice): gives comparable results to ciglitazone at 100 mg/kg
6 | CC(C)N1C2(CC(=O)NC2=O)c2ccccc2S1(=O)=O (centres unmarked) [Example 111] |  |  |  | % Change from vehicle (plasma glucose) (diabetic (db/db) mice; 87 mg/kg/day p.o. (gavage), Day 4 mean of 2 and 4 hour samples vs Day 1 baseline, difference from vehicle): -27%
7 | O=C1CC2(C(=O)N1)c1ccccc1S(=O)(=O)N2Cc1ccc(Cl)c(Cl)c1 (centres unmarked) [Example 105] | -27 | 63 | 16 | 
8 | O=C1CC2(C(=O)N1)c1ccccc1S(=O)(=O)N2Cc1c(F)cccc1Cl (centres unmarked) [Example 110] | -17 |  |  | 
9 | CN1C(=O)c2cc(Cl)c(Cl)cc2C12CC(=O)NC2=O (centres unmarked) [Example 122, 5,6-dichloro-2-methylspiro[1H-isoindole-1,3'-pyrrolidine]-2',3,5'(2H)-trione] | -31 |  | 83 | inhibition at 10 µM (aldose reductase): 94%; % Lowering of dulcitol accumulation In Vivo, % D (diaphragm) (galactosemic rats; 3 mg/kg): 25%; % Lowering of dulcitol accumulation In Vivo, % N (sciatic nerve) (galactosemic rats; 3 mg/kg): 20%; % Lowering of dulcitol accumulation In Vivo, % D (diaphragm) (galactosemic rats; 50 mg/kg): 90%; % Lowering of dulcitol accumulation In Vivo, % L (lens) (galactosemic rats; 50 mg/kg): 71%; % Lowering of dulcitol accumulation In Vivo, % N (sciatic nerve) (galactosemic rats; 50 mg/kg): 94%
10 | O=C1CC2(C(=O)N1)c1ccccc1C(=O)N2Cc1ccc(Br)cc1F (centres unmarked) [Example 116, 2-[(4-bromo-2-fluorophenyl)methyl]spiro[1H-isoindole-1,3'pyrrolidine]-2',3,5'(2H)-trione] | -36 | 84 | 54 | % Lowering of dulcitol accumulation In Vivo, % D (diaphragm) (galactosemic rats; 101 mg/kg): 30%
